Experimental data reported in patent publication US10172837B2, “Insulin sensitisers and methods of treatment” (NAIA Metabolic, Inc., priority 2007, dated 2019).

Tests used:
Assay type in all cases: in vivo, Mus Musculus
[1] = tested on: Diet-Induced Obese (DIO) Mice; experiment: Fasting plasma glucose in diet-induced obese mice; conditions: for FPG Day −1: before dosing
[2] = tested on: Diet-Induced Obese (DIO) Mice; experiment: ipGTT (glucose tolerance) in diet-induced obese mice; conditions: for AUC Day −1: before dosing
[3] = Body weight of treated diet-induced obese mice
Method: Male C57Bl/6J mice were obtained at 8 weeks of age from Animal Resources Centre (Canning Vale, Western Australia). Animals were individually housed and allowed free movement and ad libitum access to water and food. Animals were maintained on a 12 hour light (6 am-6 pm) and 12 hour dark (6 pm-6 am) cycle. Animals were monitored daily. Body weight, food and water intake were recorded 3 times a week.

db/db mice = experiment: Fasting plasma glucose in db/db mice; conditions: for FPG Day 0: Metformin 300 mg/kg group
Text: The db/db mouse model comprises mice with a homozygous mutation of the leptin receptor gene that ablates leptin signalling in the hypothalamus and elsewhere. The db/db mouse model is commonly used to study the genetic and physiological mechanisms of obesity and type II diabetes. […] Leptin acts through the leptin receptor to control whole-body energy homeostasis by regulating both appetite and energy expenditure. Loss of function of the leptin receptor gene results in hyperphagia and slower metabolism, leading to obesity and eventually diabetes. […] Dosing solutions of the test articles: Methazolamide, Metformin and Methazolamide/Metformin were prepared fresh on each dosing day and stored at room temperature, protected from light. The compound was formulated in sterile vehicle: […] Stock solutions were prepared by dissolving the compound in NMP:PEG300 (1:2, v/v). Saline was added to the stock solution prior to administration of the compound. The solutions were mixed by vortexing immediately prior to dosing to ensure a homogeneous suspension of the compound. Male C57Bl/6J db/db mice were obtained at 10 weeks of age from Animal Resources Centre ([…], Western Australia). Animals were individually housed and allowed free movement and ad libitum access to water and food. Animals were maintained on a 12 hour light (6 am-6 pm) and 12 hour dark (6 pm-6 am) cycle. Animals were monitored daily. Body weight, food and water intake were recorded 3 times a week. Mice were fed a standard chow diet, and used after a two week acclimatisation period. […] The fasting plasma glucose levels of the animals was tested prior to commencement of the study and then every 3-4 days during dosing. The animals were fasted for a period of 4 hours after dosing and prior to the taking of a blood sample via a tail nick. Blood glucose levels were monitored using commercially available glucometers (Accuchek Advantage, Roche) based on the electric current generated when a blood drop is spotted on a test strip resulting in conversion of the glucose present in the sample to gluconolactone by the glucose dehydrogenase enzyme, in the presence of the coenzyme (PQQ).

[4] = Acetazolamide 10 mg/kg b.i.d. oral gavage
[5] = Acetazolamide 20 mg/kg b.i.d. oral gavage
[6] = Acetazolamide 50 mg/kg b.i.d. oral gavage
[7] = Metformin 300 mg/kg oral gavage
[8] = Chlorthalidone 10 mg/kg oral gavage
[9] = Chlorthalidone 20 mg/kg oral gavage
[10] = Chlorthalidone 50 mg/kg oral gavage
[11] = Furosemide 10 mg/kg oral gavage
[12] = Furosemide 20 mg/kg oral gavage
[13] = Furosemide 50 mg/kg oral gavage

Question: Which results are given for `CC(=O)Nc1nnc(S(N)(=O)=O)s1` [Acetazolamide]?
Answer: effect on fasting plasma glucose levels of diet-induced obese mice [1]: reduced the fasting plasma glucose levels; Delta FPG Treatment Day 13 vs Day −1 [1, 4]: −9%; FPG Day 13 [1, 4]: 5.76 ± 0.43 mM; FPG Treatment vs Vehicle Day 13 [1, 4]: −9%; FPG Day −1 ([1]; Acetazolamide 10 mg/kg group): 6.35 ± 0.5 mM; Delta FPG Treatment Day 13 vs Day −1 [1, 5]: −14%^2; FPG Day 13 [1, 5]: 5.46 ± 0.32 mM; FPG Treatment vs Vehicle Day 13 [1, 5]: −14%^1; FPG Day −1 ([1]; Acetazolamide 20 mg/kg group): 6.32 ± 0.42 mM; Delta FPG Treatment Day 13 vs Day −1 [1, 6]: −5%; FPG Day 13 [1, 6]: 6.28 ± 0.31 mM; FPG Treatment vs Vehicle Day 13 [1, 6]: −1%; FPG Day −1 ([1]; Acetazolamide 50 mg/kg group): 6.62 ± 0.38 mM; effect on glucose tolerance of diet-induced obese mice [2]: increased the glucose tolerance; AUC Day 13 [2, 4]: 944 ± 26 mM·min; AUC Treatment vs Vehicle Day 13 [2, 4]: −22%^2; Delta AUC Treatment Day 13 vs Day −1 [2, 4]: −30%^1; AUC Day −1 ([2]; Acetazolamide 10 mg/kg group): 1342 ± 88 mM·min; AUC Day 13 [2, 5]: 902 ± 98 mM·min; AUC Treatment vs Vehicle Day 13 [2, 5]: −25%^3; Delta AUC Treatment Day 13 vs Day −1 [2, 5]: −33%^1; AUC Day −1 ([2]; Acetazolamide 20 mg/kg group): 1340 ± 68 mM·min; AUC Day 13 [2, 6]: 1020 ± 144 mM·min; AUC Treatment vs Vehicle Day 13 [2, 6]: −15%^; Delta AUC Treatment Day 13 vs Day −1 [2, 6]: −23%^2; AUC Day −1 ([2]; Acetazolamide 50 mg/kg group): 1323 ± 109 mM·min; difference in body weight between treated groups ([3]; Day 0 or Day 13, DIO mice): no difference in body weight

Question: Which results are given for `CN(C)C(=N)N=C(N)N` [Metformin]?
Answer: FPG Day −1 ([1]; Metformin 300 mg/kg group): 6.1 ± 0.6 mM; Delta FPG Treatment Day 13 vs Day −1 [1, 7]: 11%; Delta FPG Treatment vs Vehicle Day 13 [1, 7]: −11%; FPG Day 13 [1, 7]: 6.8 ± 0.4 mM; AUC Day −1 ([2]; Metformin 300 mg/kg group): 1171 ± 81 mM·min; AUC Day 13 [2, 7]: 1307 ± 91 mM·min; AUC Day 13 Treat vs Veh [2, 7]: 8%; Delta AUC Day 13 vs Day −1 [2, 7]: 12%; FPG Day 0 (db/db mice; before dosing (Table 9-1)): 23.86 ± 1.4 mM; FPG Day 0 (db/db mice; before dosing (Table 9-2)): 23.86 ± 1.4 mM; Delta FPG Treatment Day 8 vs Day 0 (db/db mice; [7]): −20%^2; Delta FPG Treatment Day 18 vs Day 0 (db/db mice; [7]): −16%^; FPG Day 8 (db/db mice; [7]): 19.10 ± 2.1 mM; FPG Day 18 (db/db mice; [7]): 20.01 ± 1.8 mM; FPG Treatment vs Vehicle Day 8 (db/db mice; [7]): −18%^; FPG Treatment vs Vehicle Day 18 (db/db mice; [7]): −27%^4

Question: Which “effect on fasting plasma glucose levels of diet-induced obese mice” value [1] does the source give for `NS(=O)(=O)c1cc(C2(O)NC(=O)c3ccccc32)ccc1Cl` (stereo not drawn) [Chlorthalidone] here?
Answer: no beneficial effect

Question: And the “FPG Day −1” value ([1]; Chlorthalidone 10 mg/kg group)?
Answer: 7.8 ± 0.31 mM

Question: What about the “Delta FPG Treatment Day 13 vs Day −1” value [1, 8] of the same molecule?
Answer: 4%

Question: And the “FPG Day 13” value [1, 8]?
Answer: 8.08 ± 0.35 mM

Question: And the “FPG Treatment vs Vehicle Day 13” value [1, 8]?
Answer: 5%

Question: And the “FPG Day −1” value ([1]; Chlorthalidone 20 mg/kg group)?
Answer: 7.58 ± 0.18 mM

Question: What about the “Delta FPG Treatment Day 13 vs Day −1” value [1, 9] of the same molecule?
Answer: −7%

Question: What about the “FPG Day 13” value [1, 9] of the same molecule?
Answer: 7.08 ± 0.31 mM

Question: And the “FPG Treatment vs Vehicle Day 13” value [1, 9]?
Answer: −8%

Question: What about the “FPG Day −1” value ([1]; Chlorthalidone 50 mg/kg group) of the same molecule?
Answer: 7.94 ± 0.4 mM

Question: And the “Delta FPG Treatment Day 13 vs Day −1” value [1, 10]?
Answer: −7%

Question: And the “FPG Day 13” value [1, 10]?
Answer: 7.4 ± 0.51 mM

Question: And the “FPG Treatment vs Vehicle Day 13” value [1, 10]?
Answer: −4%

Question: And the “effect on glucose tolerance of diet-induced obese mice” value [2]?
Answer: no beneficial effect

Question: And the “AUC Day −1” value ([2]; Chlorthalidone 10 mg/kg group)?
Answer: 1439 ± 137 mM·min

Question: And the “AUC Day 13” value [2, 8]?
Answer: 1660 ± 137 mM·min

Question: And the “AUC Treatment vs Vehicle Day 13” value [2, 8]?
Answer: 29%

Question: What about the “Delta AUC Treatment Day 13 vs Day −1” value [2, 8] of the same molecule?
Answer: 15%

Question: And the “AUC Day −1” value ([2]; Chlorthalidone 20 mg/kg group)?
Answer: 1416 ± 110 mM·min

Question: What about the “AUC Day 13” value [2, 9] of the same molecule?
Answer: 1263 ± 75 mM·min

Question: What about the “AUC Treatment vs Vehicle Day 13” value [2, 9] of the same molecule?
Answer: −2%

Question: And the “Delta AUC Treatment Day 13 vs Day −1” value [2, 9]?
Answer: −11%

Question: And the “AUC Day −1” value ([2]; Chlorthalidone 50 mg/kg group)?
Answer: 1398 ± 87 mM·min

Question: And the “AUC Day 13” value [2, 10]?
Answer: 1512 ± 46 mM·min

Question: What about the “AUC Treatment vs Vehicle Day 13” value [2, 10] of the same molecule?
Answer: 17%

Question: And the “Delta AUC Treatment Day 13 vs Day −1” value [2, 10]?
Answer: 8%

Question: With `NS(=O)(=O)c1cc(C(=O)O)c(NCc2ccco2)cc1Cl` [Furosemide] as the molecule, how does the “FPG Day −1” value ([1]; Furosemide 10 mg/kg group) read?
Answer: 7.28 ± 0.3 mM

Question: What about the “Delta FPG Treatment Day 13 vs Day −1” value [1, 11] of the same molecule?
Answer: 24%

Question: And the “FPG Day 13” value [1, 11]?
Answer: 9.02 ± 0.4 mM

Question: And the “FPG Treatment vs Vehicle Day 13” value [1, 11]?
Answer: 4%

Question: What about the “FPG Day −1” value ([1]; Furosemide 20 mg/kg group) of the same molecule?
Answer: 7.4 ± 0.4 mM

Question: What about the “Delta FPG Treatment Day 13 vs Day −1” value [1, 12] of the same molecule?
Answer: 15%

Question: And the “FPG Day 13” value [1, 12]?
Answer: 8.50 ± 0.4 mM

Question: And the “FPG Treatment vs Vehicle Day 13” value [1, 12]?
Answer: −2%

Question: What about the “FPG Day −1” value ([1]; Furosemide 50 mg/kg group) of the same molecule?
Answer: 6.78 ± 0.3 mM

Question: What about the “Delta FPG Treatment Day 13 vs Day −1” value [1, 13] of the same molecule?
Answer: 20%

Question: And the “FPG Day 13” value [1, 13]?
Answer: 8.16 ± 0.6 mM

Question: And the “FPG Treatment vs Vehicle Day 13” value [1, 13]?
Answer: −6%

Question: What about the “outcome of animals” value ([3]; 100 mg/kg/d, DIO mice) of the same molecule?
Answer: had to be euthanized

Question: And the body weight lost ([3]; 100 mg/kg/d, in 5 days, DIO mice)?
Answer: ~6 g

Question: And the “body weight effect” value ([3]; DIO mice, consistent with a toxic effect)?
Answer: substantial body weight loss
